Measured values from the kinase profiling compilation of Christmann-Franck et al. (2016).

Key:
Assay in all cases: radiometric filter-binding kinase assay, Kinase HotSpot
Conditions in all cases: compound 0.5 µM; ATP 10 µM
[1] = target: AKT3 (human) (UniProt Q9Y243)
[2] = target: ALK (human) (UniProt Q9UM73)
[3] = target: CDK5 CDK5R1 p25 (human) (UniProt Q00535+Q15078)
[4] = target: CDK9 CCNT1 (human) (UniProt P50750+O60563)
[5] = target: EPHA2 (human) (UniProt P29317)
[6] = target: FER (human) (UniProt P16591)
[7] = target: FGR (human) (UniProt P09769)
[8] = target: MET (human) (UniProt P08581)
[9] = target: PDGFRB (human) (UniProt P09619)
Sequence of PDGFRB (human) (P09619 whole entry, looked up): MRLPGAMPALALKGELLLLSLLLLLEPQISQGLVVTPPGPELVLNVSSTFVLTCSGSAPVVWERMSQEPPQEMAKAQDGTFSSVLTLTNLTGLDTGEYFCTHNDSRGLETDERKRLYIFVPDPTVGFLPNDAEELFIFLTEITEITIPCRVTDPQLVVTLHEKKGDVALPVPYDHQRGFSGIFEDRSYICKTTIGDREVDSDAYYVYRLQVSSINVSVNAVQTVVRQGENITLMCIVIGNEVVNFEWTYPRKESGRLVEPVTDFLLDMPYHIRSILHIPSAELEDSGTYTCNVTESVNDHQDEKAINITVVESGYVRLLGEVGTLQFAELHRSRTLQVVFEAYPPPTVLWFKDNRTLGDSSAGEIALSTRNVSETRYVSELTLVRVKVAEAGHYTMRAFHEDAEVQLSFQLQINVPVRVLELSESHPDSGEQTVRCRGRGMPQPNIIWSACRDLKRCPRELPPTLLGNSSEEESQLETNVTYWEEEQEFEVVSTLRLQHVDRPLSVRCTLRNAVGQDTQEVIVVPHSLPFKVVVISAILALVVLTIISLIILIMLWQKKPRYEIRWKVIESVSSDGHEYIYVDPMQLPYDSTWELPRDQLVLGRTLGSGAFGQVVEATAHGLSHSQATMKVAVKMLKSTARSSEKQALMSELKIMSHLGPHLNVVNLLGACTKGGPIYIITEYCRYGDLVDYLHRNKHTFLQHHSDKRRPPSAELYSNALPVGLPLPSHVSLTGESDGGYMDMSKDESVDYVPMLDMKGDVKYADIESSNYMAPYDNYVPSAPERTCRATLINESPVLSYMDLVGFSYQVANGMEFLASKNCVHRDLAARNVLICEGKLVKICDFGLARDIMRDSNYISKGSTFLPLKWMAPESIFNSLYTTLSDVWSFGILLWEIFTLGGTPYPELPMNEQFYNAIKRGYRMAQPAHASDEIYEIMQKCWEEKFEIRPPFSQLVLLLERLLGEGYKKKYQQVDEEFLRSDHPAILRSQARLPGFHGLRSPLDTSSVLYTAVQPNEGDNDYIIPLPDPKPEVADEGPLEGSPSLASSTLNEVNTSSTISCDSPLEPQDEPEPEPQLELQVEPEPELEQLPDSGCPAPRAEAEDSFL

[10] = target: RPS6KA4 KD2 (human) (UniProt O75676)
Sequence of RPS6KA4 KD2 (human) (O75676 whole entry, looked up): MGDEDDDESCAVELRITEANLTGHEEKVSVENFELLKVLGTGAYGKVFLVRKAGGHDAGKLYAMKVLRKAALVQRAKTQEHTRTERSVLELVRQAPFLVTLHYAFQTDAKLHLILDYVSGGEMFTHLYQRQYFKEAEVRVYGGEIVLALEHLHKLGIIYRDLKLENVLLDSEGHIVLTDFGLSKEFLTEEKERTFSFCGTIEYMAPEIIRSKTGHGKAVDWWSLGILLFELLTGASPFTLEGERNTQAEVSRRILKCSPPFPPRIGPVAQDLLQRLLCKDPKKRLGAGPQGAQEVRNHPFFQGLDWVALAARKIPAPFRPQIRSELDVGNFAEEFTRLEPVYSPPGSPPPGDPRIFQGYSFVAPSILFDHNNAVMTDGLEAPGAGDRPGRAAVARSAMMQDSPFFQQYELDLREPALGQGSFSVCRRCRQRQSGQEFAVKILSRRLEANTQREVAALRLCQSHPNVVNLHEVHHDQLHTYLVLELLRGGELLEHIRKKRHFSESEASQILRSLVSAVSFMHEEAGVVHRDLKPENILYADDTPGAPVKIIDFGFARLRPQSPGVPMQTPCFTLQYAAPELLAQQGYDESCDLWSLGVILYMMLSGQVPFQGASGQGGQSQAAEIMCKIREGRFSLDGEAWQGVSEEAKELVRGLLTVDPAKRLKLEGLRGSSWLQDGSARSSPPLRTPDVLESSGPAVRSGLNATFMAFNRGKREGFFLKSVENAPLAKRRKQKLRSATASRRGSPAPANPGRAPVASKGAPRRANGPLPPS

Sequence of AKT3 (human) (Q9Y243 whole entry, looked up): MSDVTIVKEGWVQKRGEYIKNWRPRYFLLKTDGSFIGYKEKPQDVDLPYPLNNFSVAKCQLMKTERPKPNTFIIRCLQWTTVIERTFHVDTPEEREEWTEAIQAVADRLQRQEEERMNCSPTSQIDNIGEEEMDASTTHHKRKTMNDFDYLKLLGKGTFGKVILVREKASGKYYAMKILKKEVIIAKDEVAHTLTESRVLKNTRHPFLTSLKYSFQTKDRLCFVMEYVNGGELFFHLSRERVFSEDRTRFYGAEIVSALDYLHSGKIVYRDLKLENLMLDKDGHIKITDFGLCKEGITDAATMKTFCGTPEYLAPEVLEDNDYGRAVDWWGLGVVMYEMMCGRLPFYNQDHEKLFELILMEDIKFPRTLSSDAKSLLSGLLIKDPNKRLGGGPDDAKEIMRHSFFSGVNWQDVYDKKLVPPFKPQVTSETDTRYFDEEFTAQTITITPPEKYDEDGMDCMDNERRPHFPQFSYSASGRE
Sequence of CDK9 CCNT1 (human) (O60563 whole entry, looked up): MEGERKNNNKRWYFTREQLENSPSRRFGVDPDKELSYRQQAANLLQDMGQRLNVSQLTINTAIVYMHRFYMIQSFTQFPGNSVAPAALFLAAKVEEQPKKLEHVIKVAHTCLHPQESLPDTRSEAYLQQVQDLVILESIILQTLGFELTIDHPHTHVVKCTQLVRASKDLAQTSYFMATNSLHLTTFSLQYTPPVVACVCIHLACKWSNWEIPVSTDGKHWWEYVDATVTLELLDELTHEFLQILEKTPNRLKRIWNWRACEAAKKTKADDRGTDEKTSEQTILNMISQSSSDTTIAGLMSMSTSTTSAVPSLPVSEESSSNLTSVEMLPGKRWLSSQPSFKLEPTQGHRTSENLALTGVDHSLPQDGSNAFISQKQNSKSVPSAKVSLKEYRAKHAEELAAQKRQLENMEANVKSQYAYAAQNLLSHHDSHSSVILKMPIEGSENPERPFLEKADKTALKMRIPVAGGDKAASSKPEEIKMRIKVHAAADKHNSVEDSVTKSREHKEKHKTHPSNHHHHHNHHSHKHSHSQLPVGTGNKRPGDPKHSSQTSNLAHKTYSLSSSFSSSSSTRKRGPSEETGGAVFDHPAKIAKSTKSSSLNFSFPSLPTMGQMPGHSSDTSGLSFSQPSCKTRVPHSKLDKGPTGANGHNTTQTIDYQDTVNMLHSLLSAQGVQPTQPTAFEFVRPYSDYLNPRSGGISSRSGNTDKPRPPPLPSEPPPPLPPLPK
Sequence of CDK9 CCNT1 (human) (P50750 whole entry, looked up): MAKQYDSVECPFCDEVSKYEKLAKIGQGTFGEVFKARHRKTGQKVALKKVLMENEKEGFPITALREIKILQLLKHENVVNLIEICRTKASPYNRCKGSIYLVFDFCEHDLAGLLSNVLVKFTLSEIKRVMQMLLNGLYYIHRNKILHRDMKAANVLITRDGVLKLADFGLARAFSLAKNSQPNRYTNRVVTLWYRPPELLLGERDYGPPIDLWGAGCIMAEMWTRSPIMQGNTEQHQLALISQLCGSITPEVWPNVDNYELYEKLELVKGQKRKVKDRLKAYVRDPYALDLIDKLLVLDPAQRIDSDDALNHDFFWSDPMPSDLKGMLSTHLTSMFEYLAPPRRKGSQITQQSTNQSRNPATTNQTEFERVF
Sequence of ALK (human) (Q9UM73 whole entry, looked up): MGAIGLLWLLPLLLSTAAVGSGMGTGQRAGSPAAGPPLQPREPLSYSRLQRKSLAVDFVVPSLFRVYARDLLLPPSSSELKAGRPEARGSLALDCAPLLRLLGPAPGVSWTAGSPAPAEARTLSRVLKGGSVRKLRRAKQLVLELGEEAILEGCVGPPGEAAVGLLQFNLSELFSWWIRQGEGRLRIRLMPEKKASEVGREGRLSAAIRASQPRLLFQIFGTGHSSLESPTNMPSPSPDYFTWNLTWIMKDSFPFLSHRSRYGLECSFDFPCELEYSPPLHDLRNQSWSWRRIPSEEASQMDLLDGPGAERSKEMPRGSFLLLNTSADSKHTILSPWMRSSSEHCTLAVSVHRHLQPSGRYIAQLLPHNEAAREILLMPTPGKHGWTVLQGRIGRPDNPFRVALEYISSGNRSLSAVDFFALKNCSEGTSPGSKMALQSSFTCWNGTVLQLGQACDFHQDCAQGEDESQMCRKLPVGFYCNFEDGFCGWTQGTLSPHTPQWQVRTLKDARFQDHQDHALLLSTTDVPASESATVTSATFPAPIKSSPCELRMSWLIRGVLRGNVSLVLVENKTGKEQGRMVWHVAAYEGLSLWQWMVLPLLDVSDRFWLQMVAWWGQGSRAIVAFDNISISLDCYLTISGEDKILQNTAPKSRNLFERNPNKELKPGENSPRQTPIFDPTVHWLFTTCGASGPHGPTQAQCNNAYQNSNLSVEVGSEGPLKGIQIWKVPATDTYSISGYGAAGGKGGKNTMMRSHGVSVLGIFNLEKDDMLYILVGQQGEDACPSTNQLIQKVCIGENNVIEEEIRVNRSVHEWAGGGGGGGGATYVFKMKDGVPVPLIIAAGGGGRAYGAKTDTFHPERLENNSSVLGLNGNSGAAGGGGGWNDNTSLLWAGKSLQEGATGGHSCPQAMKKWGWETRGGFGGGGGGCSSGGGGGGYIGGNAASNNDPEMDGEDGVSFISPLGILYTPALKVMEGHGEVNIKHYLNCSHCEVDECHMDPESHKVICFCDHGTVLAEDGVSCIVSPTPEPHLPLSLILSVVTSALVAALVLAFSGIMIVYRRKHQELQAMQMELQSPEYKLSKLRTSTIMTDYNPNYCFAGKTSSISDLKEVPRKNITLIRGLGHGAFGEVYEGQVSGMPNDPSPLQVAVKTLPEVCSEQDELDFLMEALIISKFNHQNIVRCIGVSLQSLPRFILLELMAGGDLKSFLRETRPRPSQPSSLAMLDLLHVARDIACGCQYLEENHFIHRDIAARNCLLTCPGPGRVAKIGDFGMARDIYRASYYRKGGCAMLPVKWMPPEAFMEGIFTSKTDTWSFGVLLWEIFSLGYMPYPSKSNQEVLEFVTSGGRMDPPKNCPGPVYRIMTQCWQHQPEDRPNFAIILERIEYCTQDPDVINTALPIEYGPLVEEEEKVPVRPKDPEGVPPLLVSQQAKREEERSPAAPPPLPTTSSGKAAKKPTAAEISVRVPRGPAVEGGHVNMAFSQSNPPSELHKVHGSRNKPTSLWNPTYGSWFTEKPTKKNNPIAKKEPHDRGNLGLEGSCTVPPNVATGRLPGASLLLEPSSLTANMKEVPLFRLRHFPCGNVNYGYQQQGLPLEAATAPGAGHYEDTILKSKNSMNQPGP

CN[C@@H]1C[C@H]2O[C@@](C)([C@@H]1OC)n1c3ccccc3c3c4c(c5c6ccccc6n2c5c31)C(=O)NC4
residual activity [1]: 2.97%
residual activity [2]: 0.859%
residual activity [3]: 2.78%
residual activity [4]: 1.38%
residual activity [5]: 21.3%
residual activity [6]: 0.816%
residual activity [7]: 0.266%
residual activity [8]: 32.7%
residual activity [9]: 2.28%
residual activity [10]: 6.74%
